For 14 compounds, TGI and GI50 results are on record in PubChem BioAssay (NCI).

Test systems include HOP-92 NSCLC; SF-295 CNS; LOX IMVI melanoma; U251 CNS; KM12 colon; BT-549 breast; NCI/ADR-RES ovarian; NCI-H522 lung; RXF 393 renal; SK-OV-3 ovarian.
Common to all, as to test: NCI tumour cell line growth inhibition, 48 h

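Test compounds were applied to cells in 96-well plates for 48 hours at 5 doses. Abbreviation: GI50, concentration required for 50% inhibition of growth. TGI: concentration producing complete growth inhibition.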

Consider `C=CCC1(O)c2ccccc2C(=O)c2c(O)ccc(O)c21` (stereo unspecified), for which the TGI in the test with HOP-92 NSCLC is 41.1 µM; with SF-295 CNS, more than 51.9 µM; in the test with LOX IMVI melanoma, more than 50.9 µM; with U251 CNS, 24.3 µM; in the test on KM12 colon, 30.1 µM; in the test with BT-549 breast it was 36.3 µM. Moreover, the TGI was found to be 12.1 µM in the test with NCI/ADR-RES ovarian, 8.11 µM with NCI-H522 lung, 21.4 µM in the test on RXF 393 renal and 40.7 µM in the test with SK-OV-3 ovarian.

`O=C1c2c(F)c(F)c(F)c(F)c2SC2=NCCN12`: the TGI in the test with HOP-92 NSCLC was 9.19 µM; in the test on SF-295 CNS it was 32.4 µM; in the test with LOX IMVI melanoma, 3.07 µM; in the test on U251 CNS it was 22.9 µM; with KM12 colon it was 25.6 µM; in the test with BT-549 breast, 28 µM. For the same compound, the TGI worked out at 31.3 µM in the test on NCI/ADR-RES ovarian, 10.1 µM with NCI-H522 lung, 8.89 µM in the test with RXF 393 renal and 28.7 µM with SK-OV-3 ovarian.

`CCCC(=O)O`: the TGI was 14200 µM in the test on HOP-92 NSCLC; more than 18700 µM in the test with SF-295 CNS; 8470 µM in the test on LOX IMVI melanoma; more than 18700 µM in the test with U251 CNS; more than 18700 µM in the test on KM12 colon; more than 18700 µM in the test with BT-549 breast. Also, the TGI in the test on NCI/ADR-RES ovarian was more than 18700 µM; with NCI-H522 lung, more than 18700 µM; in the test on RXF 393 renal it was 16100 µM; in the test with SK-OV-3 ovarian it was more than 18700 µM. Also, the GI50 in the test on NCI/ADR-RES ovarian was 1460 µM.

In the case of `CCOC(=O)c1cccc(NC(=O)CCl)c1`, the TGI with HOP-92 NSCLC worked out at 16.9 µM; in the test with SF-295 CNS, 26.1 µM; with LOX IMVI melanoma it was 3.89 µM; with U251 CNS, 2.95 µM; in the test on KM12 colon it was 21.4 µM; with BT-549 breast, 17.9 µM. The TGI came to 22.7 µM in the test with NCI/ADR-RES ovarian, 3.49 µM in the test on NCI-H522 lung, 9.9 µM in the test on RXF 393 renal and 15.3 µM in the test with SK-OV-3 ovarian.

In the case of `COc1c2cc([N+](=O)[O-])cc1CNC(=O)CN1CCOCCOCCN(CCOCCOCC1)CC(=O)NC2`, the TGI in the test on HOP-92 NSCLC, with SF-295 CNS, with LOX IMVI melanoma, in the test on U251 CNS, with KM12 colon and in the test on BT-549 breast was more than 100 µM in each case. The TGI in the test on NCI/ADR-RES ovarian, with NCI-H522 lung, in the test on RXF 393 renal and in the test with SK-OV-3 ovarian was more than 100 µM each time.

For `O=c1c2ccccc2oc2nc3n(c(=O)c12)CCCS3`, the TGI in the test on HOP-92 NSCLC, in the test with SF-295 CNS, in the test on LOX IMVI melanoma, in the test with U251 CNS, in the test on KM12 colon and with BT-549 breast was more than 100 µM throughout. Also, the TGI in the test on NCI/ADR-RES ovarian, in the test on NCI-H522 lung, in the test on RXF 393 renal and with SK-OV-3 ovarian was more than 100 µM in each case.

As to `CCCCNC1CCC2(SCCS2)c2[nH]c3ccccc3c21` (stereo unspecified), the TGI is more than 81.9 µM with HOP-92 NSCLC; more than 100 µM with SF-295 CNS; 14.4 µM with LOX IMVI melanoma; 97.3 µM with U251 CNS; 36.9 µM in the test with KM12 colon; more than 100 µM in the test on BT-549 breast. The TGI in the test with NCI/ADR-RES ovarian was more than 100 µM; in the test with NCI-H522 lung it was 23 µM; with RXF 393 renal it was more than 64.3 µM; in the test with SK-OV-3 ovarian, more than 100 µM.

Take `Cc1ccc(S(=O)(=O)c2scc(-c3ccccc3)c2C)cc1`: the TGI in the test with HOP-92 NSCLC, with SF-295 CNS, in the test on LOX IMVI melanoma, in the test with U251 CNS, in the test with KM12 colon and in the test on BT-549 breast was more than 100 µM throughout. In addition, the TGI in the test on NCI/ADR-RES ovarian, in the test with NCI-H522 lung, in the test with RXF 393 renal and with SK-OV-3 ovarian was more than 100 µM in each case.

For the compound `C1=C\SS/C=C\SS/C=C\SS/C=C\SS/1`, the TGI with HOP-92 NSCLC, in the test on SF-295 CNS, in the test with LOX IMVI melanoma, in the test with U251 CNS, in the test with KM12 colon and in the test on BT-549 breast was more than 100 µM each time. In addition, the TGI in the test on NCI/ADR-RES ovarian was more than 100 µM; in the test on NCI-H522 lung, 84.4 µM; in the test with RXF 393 renal it was more than 100 µM; in the test with SK-OV-3 ovarian, more than 100 µM.

As to `CN(C)c1nc2sc3c(c2c(=O)o1)CCCC3`, the TGI is more than 100 µM in the test on HOP-92 NSCLC; more than 100 µM in the test with SF-295 CNS; more than 100 µM with LOX IMVI melanoma; more than 100 µM in the test on U251 CNS; more than 100 µM in the test with KM12 colon; 65.5 µM with BT-549 breast. Moreover, the TGI in the test on NCI/ADR-RES ovarian, with NCI-H522 lung, in the test on RXF 393 renal and in the test with SK-OV-3 ovarian was more than 100 µM each time.

`O=S(=O)(Oc1ccc2oc3ccccc3c2c1-c1c(OS(=O)(=O)C(F)(F)F)ccc2oc3ccccc3c12)C(F)(F)F`: the TGI with HOP-92 NSCLC, with SF-295 CNS, in the test with LOX IMVI melanoma, with U251 CNS, with KM12 colon and in the test with BT-549 breast was more than 100 µM throughout. Besides, the TGI in the test on NCI/ADR-RES ovarian, with NCI-H522 lung, with RXF 393 renal and in the test with SK-OV-3 ovarian was more than 100 µM each time.

For `CCOc1cc2c(cc1O)/C(=N\N)C[C@@H]1[C@@H]2CC[C@]2(C)[C@@H](O)CC[C@@H]12`, the TGI in the test on HOP-92 NSCLC was 49.9 µM; in the test with SF-295 CNS it was 6.15 µM; with LOX IMVI melanoma, more than 41.5 µM; with U251 CNS, more than 48.9 µM; in the test with KM12 colon, 23 µM; in the test on BT-549 breast it was 29.8 µM. The TGI with NCI/ADR-RES ovarian is more than 28.2 µM; with NCI-H522 lung, 5.58 µM; in the test with RXF 393 renal, 36.2 µM; in the test with SK-OV-3 ovarian, more than 100 µM.

Turning to `CN1C/C(=C\c2cccs2)C2=NC(=S)NC(c3cccs3)C2C1` (stereo unspecified), the TGI in the test on HOP-92 NSCLC, in the test on SF-295 CNS, in the test with LOX IMVI melanoma, in the test with U251 CNS, in the test with KM12 colon and with BT-549 breast was more than 100 µM in each case. In addition, the TGI in the test with NCI/ADR-RES ovarian, in the test on NCI-H522 lung, in the test with RXF 393 renal and with SK-OV-3 ovarian was more than 100 µM each time.

For the compound `c1ccc(C2=NC3(CCCCC3)N(c3nc4ccccc4s3)N2)nc1`, the TGI was more than 100 µM in the test with HOP-92 NSCLC; more than 100 µM in the test on SF-295 CNS; 51.6 µM with LOX IMVI melanoma; 49 µM in the test on U251 CNS; 75.9 µM with KM12 colon; 58.2 µM with BT-549 breast. In addition, the TGI in the test with NCI/ADR-RES ovarian is 65.3 µM; with NCI-H522 lung, more than 100 µM; with RXF 393 renal, 57.7 µM; in the test with SK-OV-3 ovarian, more than 100 µM.
